This is an account of results in ChEMBL document CHEMBL3808355, “Systematic evaluation of methyl ester bioisosteres in the context of developing alkenyldiarylmethanes (ADAMs) as non-nucleoside reverse transcriptase inhibitors (NNRTIs) for anti-HIV-1 chemotherapy” (Bioorg Med Chem, 2016).

Molecules are shown by their SMILES.

Data set [1] is described as follows: Selectivity index, ratio of CC50 for cytotoxicity against mock-infected human CEM-SS cells to EC50 for antiviral activity against HIV-1 RF. Format: toxicity, cell-based. The settings on record: read-out: Ratio CC50/EC50.
For data set [2], the system named is Human immunodeficiency virus 1. In words: Antiviral activity against HIV-1 3B expressing wild type reverse transcriptase infected in human MT4 cells assessed as inhibition of virus-induced cytopathic effect by MTT assay. Format: functional, organism-based. Conditions: Human immunodeficiency virus 1, 3B.
For data set [3], the system named is Human immunodeficiency virus 1. Briefly: Selectivity index, ratio of IC50 for inhibition of HIV-1 BH10 reverese transcriptase K103N mutant expressed in Escherichia coli to IC50 for inhibition of wild type HIV-1 BH10 reverse transcriptase expressed in Escherichia coli.
Data set [4] in a line: Cytotoxicity against mock-infected human CEM-SS cells. Format: cell-based.
Data set [5] deals with Human immunodeficiency virus 1. In words: Antiviral activity against HIV-1 3B expressing reverse transcriptase K103N mutant infected in human MT4 cells assessed as inhibition of virus-induced cytopathic effect by MTT assay. Format: functional, organism-based. Conditions: Human immunodeficiency virus 1, 3B.
Data set [6] in a line: Inhibition of HIV-1 BH10 recombinant reverse transcriptase expressed in Escherichia coli assessed as incorporation of [32P]GTP into poly(rC)/oligo(dG) as template primer. Details: species or system Human immunodeficiency virus type 1 BH10.
The nature of data set [7]: Cytotoxicity against mock-infected human MT4 cells. Format: cell-based.
Data set [8] has as its system Human immunodeficiency virus 1. In words: Selectivity index, ratio of IC50 for antiviral activity against HIV-1 3B expressing reverse transcriptase K103N mutant infected in human MT4 cells to IC50 for antiviral activity against HIV-1 3B expressing wild type reverse transcriptase infected in human MT4 cells. Format: functional.
Data set [9] in a line: Inhibition of wild type HIV-1 BH10 recombinant reverse transcriptase expressed in Escherichia coli assessed as incorporation of [32P]GTP into poly(rA)/oligo(dT) as template primer. Set-up: species or system Human immunodeficiency virus type 1 BH10.
Data set [10] has as its system Human immunodeficiency virus 1. Briefly: Antiviral activity against HIV-1 RF infected in human CEM-SS cells assessed as inhibition of virus-induced cytopathic effect by XTT assay. Conditions: Human immunodeficiency virus 1, RF. Format: functional, organism-based.
Data set [11] can be described thus: Selectivity index, ratio of CC50 for cytotoxicity against mock-infected human MT4 cells to EC50 for antiviral activity against HIV-1 3B. Conditions: read-out: Ratio CC50/EC50. Format: toxicity, cell-based.
Data set [12] concerns the target Human immunodeficiency virus type 1 reverse transcriptase (Human immunodeficiency virus 1, UniProt Q72547, K103N). Briefly: Inhibition of HIV-1 BH10 recombinant reverse transcriptase K103N mutant expressed in Escherichia coli assessed as incorporation of [32P]GTP into poly(rA)/oligo(dT) as template primer. Set-up: species or system Human immunodeficiency virus type 1 BH10.

Data set [13] concerns Human immunodeficiency virus 1. Briefly: Antiviral activity against HIV-1 3B infected in human MT4 cells assessed as inhibition of virus-induced cytopathic effect by MTT assay. It is filed as functional, organism-based. The settings on record: Human immunodeficiency virus 1, 3B.

With `CO/N=C(\Cl)c1cc(/C(=C\CCCc2nnc(C)o2)c2cc(C)c3oc(=O)n(C)c3c2)cc(C)c1OC`, the selectivity ratio was determined as 4 in [1] and 27 in data set [11]. The EC50 in data set [2] worked out at 0.78 µM; in data set [5], 7.78 µM; in data set [10], 1.08 µM; in data set [13], 0.74 µM. Besides, the Ratio IC50 in data set [3] and in data set [8] was 6 throughout. For the same compound, the figures for the CC50 in [4] and in data set [7] were 4.67 µM and 18.3 µM, respectively. Besides, the 50% inhibitory concentration (IC50) was found to be 8.23 µM in data set [6], 3.44 µM in data set [9] and 21.1 µM in data set [12].
For the compound `COc1c(C)cc(/C(=C\CCCc2nnc(C)o2)c2cc(C)c3oc(=O)n(C)c3c2)cc1C(=O)SC`, the EC50 is 0.2 µM in data set [2] and 0.43 µM in [5]. The Ratio IC50 in data set [3] and in data set [8] was 2 each time. In [7], this compound displayed a CC50 of 5.36 µM. The IC50 is 0.47 µM in data set [9] and 0.91 µM in [12].
As to `CO/N=C(\F)c1cc(/C(=C\CCCc2nnc(C)o2)c2cc(C)c3oc(=O)n(C)c3c2)cc(C)c1OC`, the selectivity ratio in [1] was found to be 12; in data set [11], 76. The concentration for a half-maximal effect (EC50) in data set [2] came out at 0.55 µM; in [5], 4.03 µM; in data set [10], 0.52 µM; in data set [13], 0.35 µM. Further, the Ratio IC50 in [3] and in [8] was 6 throughout. Besides, the 50% cytotoxic concentration (CC50) was found to be 6.45 µM in [4] and 24 µM in [7]. Further, the IC50 in data set [6] worked out at 3.4 µM; in [9], 2.49 µM; in data set [12], 14.3 µM.
